Source: patent US7179806B2, “Δ1-pyrrolines used as pesticides” (Bayer Cropscience AG, priority 2000, dated 2007)

experiment: log P determination by HPLC (reversed-phase C18, EEC Directive 79/831 Annex V.A8); type: physicochemical; conditions: reversed-phase C18 HPLC column, pH 2.3, pH 2.3, 0.1% aqueous phosphoric acid/acetonitrile gradient, 43° C
Source text: Mobile phases for determination in the acidic range: 0.1% aqueous phosphoric acid, acetonitrile; linear gradient from 10% acetonitrile to 90% acetonitrile.

Row | chromatographic logP | Structure (SMILES)
1 | 3.63 | Cc1cccc(N2CCN(c3ccc(-c4ccc(C5CCC(c6c(F)cccc6F)=N5)cc4)cn3)CC2)c1C (stereo not shown) [Example 157]
2 | 1.65 | CCC(C)N1CCN(c2ncc(-c3ccc(C4CCC(c5c(F)cccc5F)=N4)cc3)cn2)CC1 (stereo not shown) [Example 158]
3 | 2.06 | Fc1cccc(F)c1C1=NC(c2ccc(-c3cnc(N4CCN(c5ccccn5)CC4)nc3)cc2)CC1 (stereo not shown) [Example 159]
4 | 1.65 | Fc1cccc(F)c1C1=NC(c2ccc(-c3cnc(NC4CC4)nc3)cc2)CC1 (stereo not shown) [Example 160]
5 | 2.58 | Fc1cccc(F)c1C1=NC(c2ccc(-c3cnc(NC4CCCC4)nc3)cc2)CC1 (stereo not shown) [Example 161]
6 | 3 | Fc1cccc(F)c1C1=NC(c2ccc(-c3cnc(NC4CCCCC4)nc3)cc2)CC1 (stereo not shown) [Example 162]
7 | 3.58 | CCCN(CC)c1ncc(-c2ccc([C@H]3CCC(c4c(F)cccc4F)=N3)cc2)cn1 [Example 163]
8 | 1.27 | Fc1cccc(F)c1C1=N[C@@H](c2ccc(-c3ccc(N4CCOCC4)nc3)cc2)CC1 [Example 164]
9 | 3.17 | Fc1cccc(F)c1C1=NC(c2ccc(-c3ccc(N4CCN(c5cccc(Cl)c5)CC4)nc3)cc2)CC1 (stereo not shown) [Example 165]
10 | 3.58 | Fc1cccc(F)c1C1=NC(c2ccc(-c3cnc(-n4cccc4)nc3)cc2)CC1 (stereo not shown) [Example 166]
11 | 1.89 | O=C1CCCCCN1c1ncc(-c2ccc(C3CCC(c4c(F)cccc4F)=N3)cc2)cn1 (stereo not shown) [Example 167]
12 | 1.84 | Fc1cccc(F)c1C1=NC(c2ccc(-c3cnc(N4CCN(CCc5ccccc5)CC4)nc3)cc2)CC1 (stereo not shown) [Example 168]
13 | 2.96 | CCCc1cnc(-c2ccc(C3CCC(c4c(F)cccc4F)=N3)cc2)nc1 (stereo not shown) [Example 169]
14 | 1.61 | COC(=O)C1CCN(c2ccc(-c3ccc(C4CCC(c5c(F)cccc5F)=N4)cc3)cn2)CC1 (stereo not shown) [Example 170]
15 | 2.51 | Fc1ccccc1N1CCN(c2ccc(-c3ccc(C4CCC(c5c(F)cccc5F)=N4)cc3)cn2)CC1 (stereo not shown) [Example 171]
16 | 1.64 | Fc1ccc(CN2CCN(c3ccc(-c4ccc(C5CCC(c6c(F)cccc6F)=N5)cc4)cn3)CC2)cc1 (stereo not shown) [Example 172]
17 | 1.83 | Fc1cccc(F)c1C1=NC(c2ccc(-c3ccc(N4CCN(Cc5ccc(Cl)cc5)CC4)nc3)cc2)CC1 (stereo not shown) [Example 173]
18 | 1.59 | COc1ccc(CN2CCN(c3ccc(-c4ccc(C5CCC(c6c(F)cccc6F)=N5)cc4)cn3)CC2)cc1 (stereo not shown) [Example 174]
19 | 2.89 | CC(C)(C)C1CCN(c2ccc(-c3ccc(C4CCC(c5c(F)cccc5F)=N4)cc3)cn2)CC1 (stereo not shown) [Example 175]
20 | 2.23 | CC(C)(C)c1ccc(CN2CCN(c3ccc(-c4ccc(C5CCC(c6c(F)cccc6F)=N5)cc4)cn3)CC2)cc1 (stereo not shown) [Example 176]
21 | 2.02 | Cc1cnc(-c2ccc(C3CCC(c4c(F)cccc4F)=N3)cc2)nc1 (stereo not shown) [Example 177]
22 | 2.45 | COCCN(CCC#N)c1ncc(-c2ccc(C3CCC(c4c(F)cccc4F)=N3)cc2)cn1 (stereo not shown) [Example 178]
23 | 2.69 | Fc1cccc(F)c1C1=NC(c2ccc(-c3ccc(Br)nc3)cc2)CC1 (stereo not shown) [Example 179]
24 | 3.08 | Fc1cccc(F)c1C1=NC(c2ccc(-c3ncc(Br)cn3)cc2)CC1 (stereo not shown) [Example 180]
25 | 2.46 | CCc1cnc(-c2ccc(C3CCC(c4c(F)cccc4F)=N3)cc2)nc1 (stereo not shown) [Example 181]

Row | chromatographic logP | Structure (SMILES)
26 | 3.1 | CN(Cc1ccco1)c1ncc(-c2ccc(C3CCC(c4c(F)cccc4F)=N3)cc2)cn1 (stereo not shown) [Example 182]
27 | 3.59 | CCN(Cc1ccco1)c1ncc(-c2ccc(C3CCC(c4c(F)cccc4F)=N3)cc2)cn1 (stereo not shown) [Example 183]
28 | 2.31 | Fc1cccc(F)c1C1=NC(c2ccc(-c3cnc(NCc4ccco4)nc3)cc2)CC1 (stereo not shown) [Example 184]
29 | 4.54 | CCC(C)N(Cc1ccco1)c1ncc(-c2ccc(C3CCC(c4c(F)cccc4F)=N3)cc2)cn1 (stereo not shown) [Example 185]
30 | 3.4 | Cc1ccc(CN(C)c2ncc(-c3ccc(C4CCC(c5c(F)cccc5F)=N4)cc3)cn2)o1 (stereo not shown) [Example 186]
31 | 2.51 | Fc1cccc(F)c1C1=NC(c2ccc(-c3cnc(N4CCC5(CC4)OCCO5)nc3)cc2)CC1 (stereo not shown) [Example 187]
32 | 4.12 | Fc1cccc(F)c1C1=NC(c2ccc(-c3ncc(-c4ccc(Cl)cc4)cn3)cc2)CC1 (stereo not shown) [Example 188]
33 | 1.5 | Fc1cccc(F)c1C1=NC(c2ccc(-c3ccc(N4CCN(Cc5ccccc5)CC4)nc3)cc2)CC1 (stereo not shown) [Example 189]
34 | 3.09 | N#Cc1cccnc1N1CCN(c2ccc(-c3ccc(C4CCC(c5c(F)cccc5F)=N4)cc3)cn2)CC1 (stereo not shown) [Example 190]
35 | 2.58 | Cc1ccc(N2CCN(c3ccc(-c4ccc(C5CCC(c6c(F)cccc6F)=N5)cc4)cn3)CC2)cc1C (stereo not shown) [Example 191]
36 | 1.14 | CC(C)N1CCN(c2ccc(-c3ccc(C4CCC(c5c(F)cccc5F)=N4)cc3)cn2)CC1 (stereo not shown) [Example 192]
37 | 1.26 | CCOCCN1CCN(c2ccc(-c3ccc(C4CCC(c5c(F)cccc5F)=N4)cc3)cn2)CC1 (stereo not shown) [Example 193]
38 | 1.16 | COCCCN1CCN(c2ccc(-c3ccc(C4CCC(c5c(F)cccc5F)=N4)cc3)cn2)CC1 (stereo not shown) [Example 195]
39 | 2.88 | Fc1cccc(F)c1C1=NC(c2ccc(-c3cnc(OC4CCC4)nc3)cc2)CC1 (stereo not shown) [Example 197]
40 | 3.67 | Fc1cccc(F)c1C1=NC(c2ccc(-c3cnc(OC4CCCCC4)nc3)cc2)CC1 (stereo not shown) [Example 198]
41 | 3.21 | Fc1cccc(F)c1C1=NC(c2ccc(-c3cnc(OC4CCCC4)nc3)cc2)CC1 (stereo not shown) [Example 199]
42 | 2.74 | Fc1cccc(F)c1C1=NC(c2ccc(-c3cnc(OCC4CC4)nc3)cc2)CC1 (stereo not shown) [Example 200]
43 | 0.9 | CCNCc1ccc(-c2ccc(C3CCC(c4c(F)cccc4F)=N3)cc2)nc1 (stereo not shown) [Example 201]
44 | 1.24 | Cc1ccc(-c2ccc(C3CCC(c4c(F)cccc4F)=N3)cc2)nc1 (stereo not shown) [Example 202]
45 | 3 | Fc1cccc(F)c1C1=NC(c2ccc(-c3ccc(N4CCN(c5cccc(C(F)(F)F)c5)CC4)nc3)cc2)CC1 (stereo not shown) [Example 203]
46 | 1.5 | Fc1cccc(F)c1C1=NC(c2ccc(-c3ccc(N4CCN(c5ncccn5)CC4)nc3)cc2)CC1 (stereo not shown) [Example 204]
47 | 3.76 | Cc1cccc(C)c1N1CCN(c2ccc(-c3ccc(C4CCC(c5c(F)cccc5F)=N4)cc3)cn2)CC1 (stereo not shown) [Example 205]
48 | 2.32 | COC(CN(C)c1ncc(-c2ccc(C3CCC(c4c(F)cccc4F)=N3)cc2)cn1)OC (stereo not shown) [Example 206]
49 | 3.09 | CCOC(CN(C)c1ncc(-c2ccc(C3CCC(c4c(F)cccc4F)=N3)cc2)cn1)OCC (stereo not shown) [Example 207]
50 | 2.89 | CN(Cc1ccc(Cl)nc1)c1ncc(-c2ccc(C3CCC(c4c(F)cccc4F)=N3)cc2)cn1 (stereo not shown) [Example 208]

Row | chromatographic logP | Structure (SMILES)
51 | 3.6 | CCN(Cc1ccc(Cl)nc1)c1ncc(-c2ccc(C3CCC(c4c(F)cccc4F)=N3)cc2)cn1 (stereo not shown) [Example 209]
52 | 1.58 | O/N=C/c1ccc(-c2ccc(C3CCC(c4c(F)cccc4F)=N3)cc2)nc1 (stereo not shown) [Example 210]
53 | 2 | CC(=O)c1ccc(-c2ccc(C3CCC(c4c(F)cccc4F)=N3)cc2)nc1 (stereo not shown) [Example 211]
54 | 4.11 | CN(c1ncc(-c2ccc(C3CCC(c4c(F)cccc4F)=N3)cc2)cn1)C1CCCCC1 (stereo not shown) [Example 212]
55 | 1.98 | CC(C#N)c1ccc(-c2ccc(C3CCC(c4c(F)cccc4F)=N3)cc2)nc1 (stereo not shown) [Example 213]
56 | 2 | O=C1CCN(c2ncc(-c3ccc(C4CCC(c5c(F)cccc5F)=N4)cc3)cn2)CC1 (stereo not shown) [Example 214]
57 | 2.65 | CON=C1CCN(c2ncc(-c3ccc(C4CCC(c5c(F)cccc5F)=N4)cc3)cn2)CC1 (stereo not shown) [Example 215]
58 | 3.1 | CCON=C1CCN(c2ncc(-c3ccc(C4CCC(c5c(F)cccc5F)=N4)cc3)cn2)CC1 (stereo not shown) [Example 216]
59 | 3.83 | CC(C)ON=C1CCN(c2ncc(-c3ccc(C4CCC(c5c(F)cccc5F)=N4)cc3)cn2)CC1 (stereo not shown) [Example 217]
60 | 2.87 | Fc1cccc(F)c1C1=NC(c2ccc(-c3ncc(Cl)cn3)cc2)CC1 (stereo not shown) [Example 218]
61 | 3.9 | Cc1nc(-c2ccc(C3CCC(c4c(F)cccc4F)=N3)cc2)nc(C)c1Cl (stereo not shown) [Example 219]
62 | 2.42 | CCOC(=O)c1cncc(-c2ccc(C3CCC(c4c(F)cccc4F)=N3)cc2)c1 (stereo not shown) [Example 220]
63 | 1.95 | O=Cc1ccc(-c2ccc(C3CCC(c4c(F)cccc4F)=N3)cc2)nc1 (stereo not shown) [Example 221]
64 | 1.63 | Brc1ccc(N2CCOCC2)nc1 [III-1, 4-(5-bromo-2-pyridinyl)morpholine]
65 | 3.48 | FC(F)(F)COc1ccc(Br)cn1 [III-2, 5-bromo-2-(2,2,2-trifluoroethoxy)pyridine]
66 | 4.38 | CCCN(CC)c1ncc(Br)cn1 [III-3, N-(5-bromo-2-pyrimidinyl)-N-ethyl-N-propylamine]
67 | 2.15 | Brc1cnc(N2CCOCC2)nc1 [III-5, 4-(5-bromo-2-pyrimidinyl)morpholine]
68 | 2.86 | CC(C)(C)C(=O)N1CCN(c2ncc(Br)cn2)CC1 [III-6, 1-(tert-butylcarbonyl)-4-(5-bromo-2-pyrimidinyl)piperazine]
69 | 2.39 | CC(C)Oc1ncc(Br)cn1 [III-7, 5-bromo-2-pyrimidinyl isopropyl ether]
70 | 3.34 | CC(C)Sc1ncc(Br)cn1 [III-8, 5-bromo-2-pyrimidinyl isopropyl sulphide]
71 | 0.51 | CCN(CC)c1ccc(Cl)nn1 [III-10, N-(6-chloro-3-pyridazinyl)-N,N-diethylamine]
72 | 1.82 | CCCN(CCC)c1ccc(Cl)nn1 [III-12, N-(6-chloro-3-pyridazinyl)-N,N-dipropylamine]
73 | 2.36 | O=C(OCc1ccccc1)N1CCN(c2ccc(Cl)nn2)CC1 [III-13, benzyl 4-(6-chloro-3-pyridazinyl)-1-piperazinecarboxylate]
